Experimental data reported in patent US12465582B2, “(S)-2-amino-6-((3-aminopropyl)amino)hexanoic acid (APL) for use in the treatment of non-alcoholic steatohepatitis (NASH), liver inflammation, hepatocellular ballooning, liver fibrosis and steatosis” (Temple University—Of The Commonwealth System Of Higher …, priority 2020, dated 2025).

Tests used:
[1] = tested on: 4-hydroxynonenal (4-HNE) in liver of C57BL/6J mice fed HFD; experiment: Hepatic 4-HNE immunofluorescence (protein carbonyls) in DIO mouse NASH model; type: in vivo; settings: 130 days
Description: Liver samples from C57BL/6J mice fed chow and treated with vehicle, C57BL/6J mice fed HFD and treated with vehicle, and C57BL/6J mice fed HFD and treated with APL, as described in Example 1, were prepared and stained with an anti-4HNE antibody from Abcam (catalog #ab46545) for immunofluorescent analysis of the presence of 4-HNE. The APL dosage, administration frequency, and duration of treatment were as described in Example 1 (APL dosage administered to each animal was 200 milligrams per kilogram of body weight divided in two dosages per day, via oral gavage; treatment duration of 130 days; animals fed ad libitum). The data are depicted in FIG. 10. FIG. 10A are representative images of 4-HNE immunofluorescence liver sections from C57BL/6J mice fed chow and treated with vehicle, C57BL/6J mice fed HFD and treated with either vehicle or APL (TB-019) at 20× or 63× magnification. FIG. 10B is a plot of the 4-HNE immunofluorescence intensity per tissue area.

[2] = tested on: C57BL/6J mice fed high fat/high fructose diet (HFD); experiment: Hepatic steatosis: liver histology (H&E, BODIPY/DAPI) in HFD mouse NASH model; type: in vivo
From the text: As in Example 1, C57BL/6 mice (same sample of mice as in Example 1) were maintained in cages (5 mice per cage) and had free access to standard rodent chow (Cat #5053, obtained from Labdiet, Saint Louis, MO) and water (filtered and packed using a Hydrapak system) for 5 days. […] The APL dose was 200 milligram per kilogram (mg/kg) per day, administered as two 100 milligram per kilogram (mg/kg) body weight APL (p.o.b.i.d.). Animals were fed ad libitum. The animals were humanely euthanized, and the livers were removed for histological analysis. Liver samples in formalin were allowed to fix for 48 hours, and processed into FFPE blocks after fixations. Slides were stained with hematoxylin and eosin (H&E) and to immunostaining with BODIPY and DAPI to quantitate fat deposition and nuclei number using confocal microscopy. See, e.g., Rico et al, 2007, J Cell Physiol, 211(2):504-12; and Daemen et al, 2016, Mol Metab, 5(3) 153-63. The data are depicted in FIGS. 3, 4, and 5
FIG. 5D is the plot of fat deposition assessed using confocal microscopy. Measurements were made in 20×-magnification fields. More than 21 fields from three different animals from each group were analyzed: Chow-vehicle (#fields=26), HFD-Vehicle (#fields=25) and HFD-APL (#fields=23). Indirect measurement using imageJ (Schneider et al., 2012, Nature Methods 9(7): 671-675) was used to calculate fat deposition. Fat deposition was increased 3-fold in HFD/vehicle-treated mice compared with CHOW control mice and with HFD/APL-treated mice (***p<0.001).

[3] = tested on: C57BL/6J mice fed AMLN diet changed to HFD; experiment: NAS and liver fibrosis in AMLN diet mouse model of NASH; type: in vivo; settings: APL p.o. b.i.d., 16 weeks
Description: FIG. 12, comprising FIGS. 12A and 12B, depicts data regarding NAS and fibrosis in an AMLN diet mouse model of NASH. C57BL/6J mice were fed either CHOW or a modified AMLN diet that was changed to HFD after twenty (20) weeks. At seek fifty (50) mice were treated with vehicle or APL (p.o.b.i.d.). The APL dosage 25, 50, or 100 mg/kg, oral administration (p.o.) in two dosages per day (b.i.d.) (total dosage of 50, 100, or 200 mg/kg/day). After sixteen (16) weeks of treatment with vehicle or APL biopsies were collected and stained with hematoxylin & eosin (H&E) and evaluated for steatosis, inflammation, and hepatocyte ballooning. FIG. 12A depicts the reduction in NAS the treated group as compared to the positive control. […] FIG. 12B depicts the reduction in liver fibrosis in the treated group as compared to the positive control.
C57BL/6 mice were maintained in cages and had free access to standard rodent chow (Cat #5053, obtained from Labdiet, Saint Louis, MO) and water. C57BL/6J mice were fed either CHOW (negative control) or amylin liver NASH (AMLN) diet (58% high fat, 25% carbohydrate, 2% cholesterol) for twenty (20) weeks. Beginning at twenty (20) weeks, animals fed AMLN diet were changed to HFD. At fifty (50) weeks, animals were treated twice daily (b.i.d.) with oral administration (p.o.) of either vehicle (positive control) or APL (treated).

[4] = See WO 2018/049019 and US 2019/0192462; cited from earlier work
[5] = tested on: C57BL/6J mice fed high fat/high fructose diet (HFD); experiment: NAFLD Activity Score (NAS) in HFD DIO mouse model of NASH; type: in vivo; settings: 130 days
Description: C57BL/6J mice were maintained in cages (5 mice per cage) and had free access to standard rodent chow (Cat #5053, obtained from Labdiet, Saint Louis, MO) and water (filtered and packed using a Hydrapak system) for 5 days until the start of the experiment. The animals were then randomly assigned to three groups (n=5 for each group receiving different diets and treatments as shown in Table B for 130 days. Each treatment was administered p.o.b.i.d. The APL dosage was 200 mg/kg body weight. “HFD” is high fat/high fructose diet, as described in Example 1 “Chow” refers to standard rodent chow, as described in Example 1. Animals were fed ad libitum.
At the conclusion of the test period, the animals were humanely euthanized, and the livers were removed for histological analysis. Liver samples in formalin were allowed to fix for 48 hours, and processed into FFPE blocks after fixations. Slides were stained with hematoxylin and eosin (H&E). FIG. 6A is the representation of multiple images of hematoxylin & eosin (H&E) staining of liver sections.
The liver samples were evaluated for liver fat (steatosis), inflammation, and hypertrophy in accordance the NAS scoring system. The NAS scoring is depicted in FIG. 6B. The NAS score for mice in the HFD/vehicle-treated mice is increased in all the pathological parameters, when compared with the CHOW/vehicle-treated mice: macrovesicular steatosis, microvesicular steatosis, hepatic hypertrophy and inflammatory foci. […] Thus, APL attenuates hepatic steatosis, inflammation and hypertrophy in the liver, each pathognomic of liver damage and NASH.

[6] = HFD mice, APL 200 mg/kg/day p.o. b.i.d., 20 weeks

## NCCCNCCCC[C@H](N)C(=O)O [APL, (S)-2-amino-6-((3-aminopropyl)amino)hexanoic acid]
[1]; APL 200 mg/kg/day in two doses, oral gavage, ***p<0.001
  protein carbonyls in liver (4-HNE immunofluorescence intensity per tissue area), treated vs HFD vehicle: reduced
[1]; APL 200 mg/kg/day
  4-HNE immunofluorescence intensity per tissue area, treated vs negative control (chow vehicle): No statistical difference
[2]; APL 200 mg/kg/day p.o. b.i.d., ***p<0.001
  number of nuclei (DAPI) of HFD/vehicle mice compared to mice fed HFD and treated with APL: statistically significant fewer
[2]; APL 200 mg/kg/day p.o. b.i.d., confocal microscopy, ImageJ, ***p<0.001
  fat deposition, increase in HFD/vehicle-treated mice compared with HFD/APL-treated mice: 3 fold
[2]; HFD mice treated with APL for 131 days, 20x magnification
  hepatocyte ballooning induced by HFD in H&E liver sections (FIG. 3): minimal or no ballooning
[2]; HFD mice, APL 200 mg/kg/day p.o. b.i.d.
  anatomical structure of the liver, H&E (FIG. 5A): retained the normal anatomy of the liver
[2]; HFD mice, APL 200 mg/kg/day p.o. b.i.d., 18 weeks, vs HFD vehicle
  hepatocyte fat accumulation, inflammatory infiltration and hepatocyte ballooning in H&E liver sections: less severe
[2]; [6]
  fat deposition, treated group vs negative control (chow vehicle): No significant statistical difference
  number of nuclei (hepatocytes), treated group vs negative control (chow vehicle): no statistical differences
[3]; ****p<0.0001
  liver fibrosis vs positive control (FIG. 12B): significant reduction
[3]; ***p<0.001
  NAS vs positive control (FIG. 12A): significant reduction
[4]
  affinity for 4-HNE: high affinity
[5]; APL 200 mg/kg p.o. b.i.d., vs HFD vehicle, ***p<0.001
  NAS parameters: macrovesicular steatosis, microvesicular steatosis, hepatic hypertrophy, inflammatory foci (FIG. 6B): statistically significant amelioration
[5]; APL 200 mg/kg, ****p<0.0001
  lobular inflammation score, treated group vs negative control (FIG. 7B): significant statistical difference
[5]; APL 200 mg/kg/day divided into 2 doses, ****p<0.0001
  NAS component scores: steatosis, lobular inflammation, hepatic ballooning (FIG. 7B), treated vs positive control: significantly reduces
